Data as given in US20110171666A1, “PEPTIDE-LIPID CONSTRUCTS AND THEIR USE IN DIAGNOSTIC AND THERAPEUTIC APPLICATIONS” (priority 2007, published 2011).
Groups on a side chain read outwards from the residue. Primed or numbered codes have the meaning given here. No end group written: not given here. *: point of attachment. DOPE = CCCCCCCC/C=C\CCCCCCCC(=O)OC[C@H](COP(=O)(O)OCCN*)OC(=O)CCCCCCC/C=C\CCCCCCCC; S1 PEG = not defined here; PEG6′ = not defined here; Mal = not defined here; Mal″ = maleimide; βAla = NCCC(=O)O

Key:
[1] = test system: Miltenberger Antibody Positive Panel (polyclonal sera and monoclonal antibodies); assay: Reactivity of construct-modified RBCs against the Miltenberger Antibody Positive Panel; assay type: cell-based, human; design: key: 0 or ‘−’=no agglutination; 0 or ‘−’=no agglutination; 1+ or 3=very weak agglutination; 1+ or 3=very weak agglutination; 2+ or 5=weak agglutination; 2+ or 5=weak agglutination; 3+ or 8=moderate strong agglutination; 3+ or 8=moderate strong agglutination; 4+ or 10/12=strong agglutination; 4+ or 10/12=strong agglutination; 4+ or 10/12=strong agglutination
Description: Red blood cells are modified by mixing 1 part by volume of washed packed red blood cells with 1 part by volume of peptide-lipid construct dispersed at a concentration of 10 to 1000 μg/ml in cell media (Celpresol™).
(§1) The suspensions are either: • 1. incubated for 2 hours at 37° C. before being washed and suspended in a cell medium for serological analysis at a concentration of 0.8 to 3% (Method 1); or • 2. incubated for 3 to 4 hours at room temperature (circa 25° C.) followed by 18 hours at 4° C. before being washed and suspended in a cell medium for serological analysis at a concentration of 0.8 to 3% (Method 2).
(§2) Serological reactions are graded or scored by either of two established systems (0 or ‘−’=no agglutination, 1+ or 3=very weak agglutination, 2+ or 5=weak agglutination, 3+ or 8=moderate strong agglutination, 4+ or 10/12=strong agglutination)
(§3) Serological platforms used are Tube (addition of reagents and reactants into plastic or glass serology tubes and after appropriate incubations, washing and centrifugation observing reactions macroscopically by eye and a 10× magnification eyepiece and scoring) and BioVue™ (addition of reactants into cassettes containing beads (including some reactants) and after appropriate incubations and centrifugation observing the reaction patterns traped within the Gel matrix). BioVue is the serological column agglutination platform of Ortho-Clinical Diagnostics.

[2] = test system: sera reactive with modified RBCs; assay: Neutralisation of reactive sera with peptide and retest against modified RBCs (BioVue cards); assay type: cell-based, human; design: key: 0 or ‘−’=no agglutination; 0 or ‘−’=no agglutination; 1+ or 3=very weak agglutination; 1+ or 3=very weak agglutination; 2+ or 5=weak agglutination; 2+ or 5=weak agglutination; 3+ or 8=moderate strong agglutination; 3+ or 8=moderate strong agglutination; 4+ or 10/12=strong agglutination; 4+ or 10/12=strong agglutination; 4+ or 10/12=strong agglutination; conditions: for reactivity score, serum + peptide: RBCs modified at 500 μg/ml (Method 1)
Description: as §1, §2, §3
Where false positives were observed these could be substantially eliminated by pre-treatment of the sample of serum with the peptide of the peptide-lipid constructs (Table 10 and 11).

[3] = MUT constructs, μg/ml used: M1 500, M2 500, M3 1000, M13 250, M21 200
[4] = MUR constructs, RBCs modified at 100 ug/ml

Substance	reactivity score of modified RBCs vs 2 T217 [1, 3]	reactivity score of modified RBCs vs 3 T165 [1, 3]	reactivity score of modified RBCs vs 4 T7202 [1, 3]	reactivity score of modified RBCs vs 6 T6025 [1, 3]	reactivity score of modified RBCs vs 7 T8445 [1, 3]	reactivity score of modified RBCs vs 8 T5896 [1, 3]	reactivity score of modified RBCs vs 9 MIII monoclonal antibody [1, 3]	reactivity score of modified RBCs vs 10 Mia monoclonal antibody [1, 3]	reactivity score of modified RBCs vs 11 Mur monoclonal antibody [1, 3]	reactivity score of modified RBCs vs 12 Gam monoclonal antibody [1, 3]	reactivity score of modified RBCs vs 2 T217 [1, 4]	reactivity score of modified RBCs vs 3 T165 [1, 4]	reactivity score of modified RBCs vs 4 T7202 [1, 4]	reactivity score of modified RBCs vs 6 T6025 [1, 4]	reactivity score of modified RBCs vs 7 T8445 [1, 4]	reactivity score of modified RBCs vs 8 T5896 [1, 4]	reactivity score of modified RBCs vs 9 MIII monoclonal antibody [1, 4]	reactivity score of modified RBCs vs 10 Mia monoclonal antibody [1, 4]	reactivity score of modified RBCs vs 11 Mur monoclonal antibody [1, 4]	reactivity score of modified RBCs vs 12 Gam monoclonal antibody [1, 4]	other results
DOPE-PEG6-βAla-Mal-13MUTK (SSQTNDKHKRDTYC([Mal-βAla-PEG6′-DOPE]); reading uncertain; also: printed as DOPE-PEG6-βAla-Mal-13MUTK) [M13]	8	0	8	8	0	3	0	0	0	0											reactivity score of modified RBCs vs 13 BoxH [1, 3]: 8; reactivity score, serum alone ([2]; serum #3, RBCs modified at 500 μg/ml (Method 1)): 8; reactivity score, serum + peptide ([2]; serum #3 neutralised with peptide SSQTNDKHKRDTY): 0; reactivity score, serum alone ([2]; serum #34, RBCs modified at 500 μg/ml (Method 1)): 8; reactivity score, serum + peptide ([2]; serum #34 neutralised with peptide SSQTNDKHKRDTY): 0; reactivity score, serum alone ([2]; serum #37, RBCs modified at 500 μg/ml (Method 1)): 8; reactivity score, serum + peptide ([2]; serum #37 neutralised with peptide SSQTNDKHKRDTY): 0; reactivity score, serum alone ([2]; serum #42, RBCs modified at 500 μg/ml (Method 1)): 8; reactivity score, serum + peptide ([2]; serum #42 neutralised with peptide SSQTNDKHKRDTY): 0
DOPE-PEG6-βAla-Mal-18Mur (PAHTANEVC([Mal″-βAla-PEG6′-DOPE])) [M18]											0	10	0	10	8	0	0	0	0	0	
DOPE-PEG6-βAla-Mal-21MUTK (SQTNDKHKRDC([Mal″-βAla-PEG6′-DOPE])) [M21]	0	8	0	8	0	0	0	0	0	3											reactivity score of modified RBCs vs 15 TAP2 [1, 3]: 5
M16: DOPE peptide-lipid construct, Mur peptide ThrTyrProAlaHisThrAlaAsnGluVal with terminal Cys, S1 PEG (Table 7) (TYPAHTANEVC([S1 PEG-DOPE]); reading uncertain)											0	10	5	5	12	0	0	0	0	0	reactivity score of modified RBCs vs 13 BoxH [1, 4]: 0
